Laboratory results published in patent US20220096516A1, “OLIGONUCLEOTIDE MOLECULE AND APPLICATION THEREOF IN TUMOR THERAPY” (Ractigen Therapeutics, priority 2019, published 2022).
d = 2'-deoxy (DNA); r = 2'-OH (RNA)

Test system: LHPP gene
Test: High-throughput screening of saRNAs targeting LHPP promoter: LHPP mRNA by one-step RT-qPCR in Huh7 cells
Assay type: cell-based, human
Conditions: 10 nM saRNA, 72 hours, relative to control (Mock)
Procedure: Human liver cancer cell line Huh7 was cultured in DMEM medium (Gibco), containing 10% of calf serum (Sigma-Aldrich) and 1% of penicillin/streptomycin (Gibco). The cells were cultured at 5% CO2 and 37° C. According to the instructions provided by the manufacturer, RNAiMax (Invitrogen, Carlsbad, Calif.) was used to transfect small activating RNAs at a concentration of 10 nM (unless otherwise specified).
At the end of transfection, the media were discarded, and each well was washed with 150 μL of PBS once. After discarding the PBS, 50 μL of cell lysis buffer (Takara) was added to each well and incubated at room temperature for 5 min. 1 μL of the resulted cell lysis was taken from each well and analyzed by qPCR on an ABI 7500 fast real-time PCR system (Applied Biosystems) using a one-step TB Green™ PrimeScrip™ RT-PCR kit II (Takara, RR086A) Each transfection sample was repeatedly amplified in 3 replicate wells.
Reaction conditions were as follows: reverse transcription reaction (stage 1): 5 min at 42° C., 10 s at 95° C.; PCR reaction (stage 2): 5 s at 95° C., 20 s at 60° C., 45 cycles of amplification. HPRT1 and TBP were used as internal reference genes. PCR primers used for amplifying LHPP, HPRT1 and TBP genes are shown in Table 2, wherein LHPP was amplified using the LHPP F1/R1 primer pair.
To calculate the relative expression level (Erel) of LHPP (target gene) in an saRNA-transfected sample relative to control treatment (Mock), the Ct values of the target gene and the two internal reference genes were substituted into formula 1
Erel=2^(CtT^m^-CtT^s^)/((2^(CtR1^m^-CtR1^s^)*2^(CtR2^m^-CtR2^s^))^(1/2))
wherein CtTm was the Ct value of the target gene from the control (Mock) sample; CtTs was the Ct value of the target gene from the saRNA-treated sample; CtR1m was the Ct value of the internal reference gene 1 from the control (Mock) sample; CtR1s was the Ct value of the internal reference gene 1 from the saRNA-treated sample; CtR2m was the Ct value of the internal reference gene 2 from the control (Mock) sample; and CtR2s was the Ct value of the internal reference gene 2 from the saRNA-treated sample.
In order to obtain saRNAs capable of activating LHPP transcription, Huh7 cells were transfected with each of the aforementioned 290 saRNAs with a transfection concentration of 10 nM, and 72 hours later, according to the same method as described above, the cells were lysed and analyzed by one-step RT-qPCR to obtain the relative (compared with the control (Mock)) expression level of LHPP gene for each saRNA-treated sample. […] The observed maximum activation and maximum inhibition is 3.46 fold and 0.49 fold, respectively, saRNAs with activating activity are referred to as activating saRNAs, and the saRNAs with inhibiting activity are referred to as inhibiting saRNAs.

RAG7-898: saRNA duplex; sense AAGCUAUGUUGGACCAGAATT (SEQ ID NO: 59), antisense UUCUGGUCCAACAUAGCUUTT (SEQ ID NO: 223) (sugars from the 5' end r19 d2, backbone not given here)
Fold of changes in relative LHPP mRNA expression level: 1.34 fold | Fold of changes in relative LHPP mRNA expression level (log2): 0.43 log2

RAG7-883: saRNA duplex; sense AGAAGUAAAGUGUUCUCGUTT (SEQ ID NO: 161), antisense ACGAGAACACUUUACUUCUTT (SEQ ID NO: 325) (sugars from the 5' end r19 d2, backbone not given here)
Fold of changes in relative LHPP mRNA expression level: 1.11 fold | Fold of changes in relative LHPP mRNA expression level (log2): 0.14 log2

RAG7-679: saRNA duplex; sense UCAUCUAUGCAGGGCUGUUTT (SEQ ID NO: 107), antisense AACAGCCCUGCAUAGAUGATT (SEQ ID NO: 271) (sugars from the 5' end r19 d2, backbone not given here)
Fold of changes in relative LHPP mRNA expression level: 1.20 fold | Fold of changes in relative LHPP mRNA expression level (log2): 0.27 log2

RAG7-198: saRNA duplex; sense UACAGGUGCCUUCUUGUCUTT (SEQ ID NO: 134), antisense AGACAAGAAGGCACCUGUATT (SEQ ID NO: 298) (sugars from the 5' end r19 d2, backbone not given here)
Fold of changes in relative LHPP mRNA expression level: 1.16 fold | Fold of changes in relative LHPP mRNA expression level (log2): 0.21 log2

RAG7-902: saRNA duplex; sense CUCAAAGCUAUGUUGGACCTT (SEQ ID NO: 50), antisense GGUCCAACAUAGCUUUGAGTT (SEQ ID NO: 214) (sugars from the 5' end r19 d2, backbone not given here)
Fold of changes in relative LHPP mRNA expression level: 1.38 fold | Fold of changes in relative LHPP mRNA expression level (log2): 0.46 log2

RAG7-102: saRNA duplex; sense GCUUCCGAAAAGGACACCGTT (SEQ ID NO: 96), antisense CGGUGUCCUUUUCGGAAGCTT (SEQ ID NO: 260) (sugars from the 5' end r19 d2, backbone not given here)
Fold of changes in relative LHPP mRNA expression level: 1.23 fold | Fold of changes in relative LHPP mRNA expression level (log2): 0.30 log2

RAG7-44: saRNA duplex; sense CCAGUUCCGGGUUUGCACCTT (SEQ ID NO: 121), antisense GGUGCAAACCCGGAACUGGTT (SEQ ID NO: 285) (sugars from the 5' end r19 d2, backbone not given here)
Fold of changes in relative LHPP mRNA expression level: 1.18 fold | Fold of changes in relative LHPP mRNA expression level (log2): 0.24 log2

RAG7-684: saRNA duplex; sense CAUCCUCAUCUAUGCAGGGTT (SEQ ID NO: 47), antisense CCCUGCAUAGAUGAGGAUGTT (SEQ ID NO: 211) (sugars from the 5' end r19 d2, backbone not given here)
Fold of changes in relative LHPP mRNA expression level: 1.39 fold | Fold of changes in relative LHPP mRNA expression level (log2): 0.47 log2

RAG7-692: saRNA duplex; sense GUCCUAUGCAUCCUCAUCUTT (SEQ ID NO: 124), antisense AGAUGAGGAUGCAUAGGACTT (SEQ ID NO: 288) (sugars from the 5' end r19 d2, backbone not given here)
Fold of changes in relative LHPP mRNA expression level: 1.17 fold | Fold of changes in relative LHPP mRNA expression level (log2): 0.22 log2

RAG7-130: saRNA duplex; sense CUUUGUCCGCUGAUCUCCUTT (SEQ ID NO: 77), antisense AGGAGAUCAGCGGACAAAGTT (SEQ ID NO: 241) (sugars from the 5' end r19 d2, backbone not given here)
Fold of changes in relative LHPP mRNA expression level: 1.28 fold | Fold of changes in relative LHPP mRNA expression level (log2): 0.36 log2

RAG7-890: saRNA duplex; sense UUGGACCAGAAGUAAAGUGTT (SEQ ID NO: 76), antisense CACUUUACUUCUGGUCCAATT (SEQ ID NO: 240) (sugars from the 5' end r19 d2, backbone not given here)
Fold of changes in relative LHPP mRNA expression level: 1.28 fold | Fold of changes in relative LHPP mRNA expression level (log2): 0.36 log2

RAG7-132: saRNA duplex; sense CUCUUUGUCCGCUGAUCUCTT (SEQ ID NO: 4), antisense GAGAUCAGCGGACAAAGAGTT (SEQ ID NO: 168) (sugars from the 5' end r19 d2, backbone not given here)
Fold of changes in relative LHPP mRNA expression level: 1.86 fold | Fold of changes in relative LHPP mRNA expression level (log2): 0.90 log2

RAG7-112: saRNA duplex; sense UGGGAAGAAAGCUUCCGAATT (SEQ ID NO: 82), antisense UUCGGAAGCUUUCUUCCCATT (SEQ ID NO: 246) (sugars from the 5' end r19 d2, backbone not given here)
Fold of changes in relative LHPP mRNA expression level: 1.26 fold | Fold of changes in relative LHPP mRNA expression level (log2): 0.33 log2

RAG7-97: saRNA duplex; sense CGAAAAGGACACCGUUUCATT (SEQ ID NO: 71), antisense UGAAACGGUGUCCUUUUCGTT (SEQ ID NO: 235) (sugars from the 5' end r19 d2, backbone not given here)
Fold of changes in relative LHPP mRNA expression level: 1.29 fold | Fold of changes in relative LHPP mRNA expression level (log2): 0.37 log2

RAG7-186: saRNA duplex; sense CUUGUCUCAAUUUGCCUUUTT (SEQ ID NO: 78), antisense AAAGGCAAAUUGAGACAAGTT (SEQ ID NO: 242) (sugars from the 5' end r19 d2, backbone not given here)
Fold of changes in relative LHPP mRNA expression level: 1.28 fold | Fold of changes in relative LHPP mRNA expression level (log2): 0.35 log2

RAG7-696: saRNA duplex; sense CCAGGUCCUAUGCAUCCUCTT (SEQ ID NO: 17), antisense GAGGAUGCAUAGGACCUGGTT (SEQ ID NO: 181) (sugars from the 5' end r19 d2, backbone not given here)
Fold of changes in relative LHPP mRNA expression level: 1.58 fold | Fold of changes in relative LHPP mRNA expression level (log2): 0.66 log2

RAG7-119: saRNA duplex; sense GAUCUCCUGGGAAGAAAGCTT (SEQ ID NO: 57), antisense GCUUUCUUCCCAGGAGAUCTT (SEQ ID NO: 221) (sugars from the 5' end r19 d2, backbone not given here)
Fold of changes in relative LHPP mRNA expression level: 1.35 fold | Fold of changes in relative LHPP mRNA expression level (log2): 0.43 log2

RAG7-196: saRNA duplex; sense CAGGUGCCUUCUUGUCUCATT (SEQ ID NO: 38), antisense UGAGACAAGAAGGCACCUGTT (SEQ ID NO: 202) (sugars from the 5' end r19 d2, backbone not given here)
Fold of changes in relative LHPP mRNA expression level: 1.45 fold | Fold of changes in relative LHPP mRNA expression level (log2): 0.54 log2

RAG7-736: saRNA duplex; sense UGGGUUUAACGCAUUGUGATT (SEQ ID NO: 131), antisense UCACAAUGCGUUAAACCCATT (SEQ ID NO: 295) (sugars from the 5' end r19 d2, backbone not given here)
Fold of changes in relative LHPP mRNA expression level: 1.16 fold | Fold of changes in relative LHPP mRNA expression level (log2): 0.22 log2

RAG7-708: saRNA duplex; sense UUUCUUCUCAGCCCAGGUCTT (SEQ ID NO: 106), antisense GACCUGGGCUGAGAAGAAATT (SEQ ID NO: 270) (sugars from the 5' end r19 d2, backbone not given here)
Fold of changes in relative LHPP mRNA expression level: 1.21 fold | Fold of changes in relative LHPP mRNA expression level (log2): 0.27 log2
